Article PMC6934184, “Selective DNA-PKcs inhibition extends the therapeutic index of localized radiotherapy and chemotherapy” (The Journal of Clinical Investigation, 2019)

Target: T1, RET M918T (Homo sapiens, UniProt P07949, M918T)
T1 construct: purchased Thermo Fisher Scientific (Life Technologies) SelectScreen
Experiment: SelectScreen LanthaScreen
Assay type: binding
Conditions: read-out: % displacement
Method in brief: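 Percent values come from Thermo SelectScreen profiling of NU5455, combining activity and binding assays. CSF1R was run in Z'LYTE format at Km app ATP, and CAMK1 in Adapta format with ATP listed at 10.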

T1 sequence (P07949 29-1114 M918T): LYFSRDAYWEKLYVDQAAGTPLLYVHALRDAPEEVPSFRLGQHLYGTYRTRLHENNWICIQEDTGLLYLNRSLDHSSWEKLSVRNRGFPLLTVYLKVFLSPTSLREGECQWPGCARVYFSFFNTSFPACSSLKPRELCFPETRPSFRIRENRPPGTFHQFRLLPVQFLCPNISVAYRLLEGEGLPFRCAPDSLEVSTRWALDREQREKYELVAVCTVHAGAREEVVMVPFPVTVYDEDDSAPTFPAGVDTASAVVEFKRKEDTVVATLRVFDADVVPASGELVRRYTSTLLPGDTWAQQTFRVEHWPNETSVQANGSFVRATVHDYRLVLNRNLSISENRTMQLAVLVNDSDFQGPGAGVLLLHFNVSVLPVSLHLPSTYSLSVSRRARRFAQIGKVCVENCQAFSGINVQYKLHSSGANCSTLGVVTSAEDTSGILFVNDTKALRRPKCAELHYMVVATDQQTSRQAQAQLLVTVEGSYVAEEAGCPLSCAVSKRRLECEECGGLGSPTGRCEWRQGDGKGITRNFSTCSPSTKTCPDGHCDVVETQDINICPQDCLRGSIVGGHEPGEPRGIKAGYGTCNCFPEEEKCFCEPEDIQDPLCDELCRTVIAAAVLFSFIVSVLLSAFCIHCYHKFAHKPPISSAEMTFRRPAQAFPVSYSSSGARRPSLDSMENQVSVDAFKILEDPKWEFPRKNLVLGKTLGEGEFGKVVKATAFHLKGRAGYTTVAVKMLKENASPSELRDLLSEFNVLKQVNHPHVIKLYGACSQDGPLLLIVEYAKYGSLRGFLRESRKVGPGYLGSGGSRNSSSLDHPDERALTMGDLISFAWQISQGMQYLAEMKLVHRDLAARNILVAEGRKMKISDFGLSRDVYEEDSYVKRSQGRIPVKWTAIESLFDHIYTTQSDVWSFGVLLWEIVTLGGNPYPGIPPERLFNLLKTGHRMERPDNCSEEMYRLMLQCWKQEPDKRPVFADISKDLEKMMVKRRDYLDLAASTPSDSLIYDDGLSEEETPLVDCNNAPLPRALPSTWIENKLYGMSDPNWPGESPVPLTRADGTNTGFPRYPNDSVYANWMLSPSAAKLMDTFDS

CN(C(=O)CN1CCOCC1)c1ccc2sc3c(-c4cccc5c(=O)cc(N6CC7CCC(C6)O7)oc45)cccc3c2c1 [NU5455] showed an inhibition at 1 µM of -3.5%.
